Assay [1] deals with myenteric intrinsic primary afferent neurons (IPANs; AH neurons). Kind of assay: Sustained slow postsynaptic excitation (SSPE) evoked by 1 Hz, 4 min stimulation of synaptic inputs; intracellular recording in ileum myenteric plexus. The conditions noted are these: for effect on the excitability increase associated with SSPE: stimulation of presynaptic inputs 1 Hz for 4 min. The assay is classed as cell-based, guinea pig. From the text: (§1) Guinea pigs from the inbred Hartley strain colony of the Department of Anatomy and Cell Biology at the University of Melbourne were used. All efforts were made to minimize animal suffering and numbers of animals used. The experiments conformed to National Health and Medical Research Council of Australia guidelines and were approved by the University of Melbourne Animal Experimentation Ethics Committee. Guinea pigs of either sex (180-250 g) were stunned by a blow to the head and killed by severing the carotid arteries and spinal cord, and segments of ileum were removed into physiological saline. The segments were placed in a recording dish lined with silicone elastomer, opened along the line of the mesenteric attachment and pinned flat under moderate tension with the mucosa uppermost. During dissection, the tissue was immersed in physiological saline (composition in mM: NaCl 118, KCl 4.8, NaHCO3 25, NaH2PO4 1.0, MgSO4 1.2, glucose 11.1, CaCl2 2.5) and kept at room temperature. The mucosa, submucosa and circular smooth muscle were removed to expose the myenteric plexus. The recording dish (volume 4 mL) was then placed on the stage of an inverted microscope and continuously superfused (4 mL/min) with physiological saline that had been preheated to yield a bath temperature of 35-37° C. The superperfusion solution was bubbled with 95% O2 and 5% CO2 and contained nicardipine (3 μM) and hyoscine (1 μM) to inhibit muscle movement. The tissue was equilibrated with the perfusate for 1-2 h before recording was commenced.
(§2) Individual neurons were impaled using conventional intracellular microelectrodes (resistance, […]) filled with 1 M KCl. Signals were amplified using an AxoClamp 2B amplifier (Axon instruments, Foster City, Calif., USA), digitized at 5-20 kHz and stored using PC-based data acquisition software (Axoscope 8.0). Measurements were made after allowing the impalements to stabilize for at least 15 min without applying intracellular holding current. Neurons were identified as AH cells based on the presence of a hump on the falling phase of the action potential and, in most cells, a late after-hyperpolarising potential following the action potential. Stimuli were applied to inter-ganglionic connectives at a frequency of 1 Hz, via a fine tungsten stimulating electrode (tip diameter<50 μm) that was placed on a circumferentially located internodal strand adjacent to the ganglion. Pulses were 0.1 ms in duration and <0.3 mA in intensity.
(§3) Neuronal excitability was assessed, by injecting 500 ms depolarizing current pulses (0.05-0.2 nA). The depolarizing pulses were delivered at intervals of 40 s. The mean excitability was evaluated by averaging the numbers of action potentials evoked by the 6 depolarizing current pulses for periods of 4 min, prior to the 1 Hz stimulus, around the peak of the response, and for a period of 4 min after the end of the stimulus. To determine input resistance (Rin), small hyperpolarizing current pulses (duration 100 ms; intensity<0.02 nA) were injected before each depolarizing pulse. The membrane potential (MP) was sampled each 40 s. MP, Rin, and numbers of action potentials in response to depolarizing pulses were determined.

Assay [2] has the same test system. The assay is described as follows: Direct effect of compounds on excitability, membrane potential, input resistance and action potentials of AH neurons (no or before presynaptic stimulation). The assay is classed as cell-based, guinea pig.
From the text: as §1, §2, §3

Entries after “also recorded” stand apart in the source; their conditions may differ.

On to `O=S(=O)(NCCNC/C=C/c1ccc(Br)cc1)c1cccc2cnccc12` [H89], for which the “effect on the excitability increase associated with SSPE” value in assay [1] (1 μM) is recorded as “no effect; also recorded: not changed”. In addition, the “effect on excitability, membrane potential or input resistance before stimulation of presynaptic inputs” value (from here on “effect on excitability … of presynaptic inputs”) in assay [2] (1 μM, about 15-25 min exposure) was “no changes”.
For `[H]/N=C(/N)SCCCn1cc(C2=C(c3cn(C)c4ccccc34)C(=O)NC2=O)c2ccccc21` [RO31-8220, 3-[1-[3-(Amidinothio)propyl-1H-indol-3-yl]-3-(1-methyl-1H-indol-3-yl)maleimide Bisindolylmaleimide IX, methanesulfonate], the “effect on the excitability increase associated with SSPE” value was “not reduced” in assay [1] (1 μM) and “reduced the degree to which the excitability increased; also recorded: reduction in the increase of AH neuron excitability” in assay [1] (3.3 μM, n=6, P<0.1). Besides, the “effect on antidromic action potential generation” value in assay [2] (3.3 μM) was “did not cause a depression”. Besides, the “effect on excitability … of presynaptic inputs” value in assay [2] (3.3 μM, 15 min exposure) is on record as “without affecting”. Further, the “effect on antidromic action potentials” value in assay [2] (10 μM, restored by increasing stimulus strength) is “sometimes suppressed”.
Turning to `CN[C@@H]1C[C@H]2O[C@@](C)([C@@H]1OC)n1c3ccccc3c3c4c(c5c6ccccc6n2c5c31)C(=O)NC4` [staurosporine], the “decrease of the peak change in excitability during SSPE” value in assay [1] (1 μM, stimulation 1 Hz for 4 min, n=6, P<0.01 vs control) is “about 75%”. Besides, in assay [1] (1 μM), the “effect on the excitability increase associated with SSPE” value was “significantly smaller or no increase in neuronal excitability”. In assay [2] (1 μM, about 15-25 min exposure), the “effect on excitability … of presynaptic inputs” value was “did not cause any change”.
For the molecule `CCCC(=O)O[C@@H]1[C@@H](C)[C@@]2(O)[C@@H](C=C(CO)C[C@]3(O)C(=O)C(C)=C[C@@H]23)[C@@H]2C(C)(C)[C@]12OC(=O)CCC` [PDBu, phorbol 12, 13 dibutyrate], the “effect on excitability of the neuron” value in assay [2] (1 μM, example neuron, FIG. 5A) is given as “increased the excitability”. In assay [2] (1 μM, example neuron, FIG. 5B), the depolarization result is “about 8 mV”. Moreover, the “increase of input resistance” value in assay [2] (1 μM, example neuron, FIG. 5C) was “about 100 MΩ”. Besides, in assay [2] (0.2-1 μM in bath for 5-10 min), the “amplitude of the after-hyperpolarizing potential (AHP) during exposure” value is “decreased” and the “duration of effect beyond washing out of the compound” value is reported as at least 10 min.
calphostin C: the “reversal of excitability already enhanced by successive stimuli (maintenance of SSPE)” value in assay [1] (1 μM, added after SSPE had been enhanced) is recorded as “did not restore excitability to its pre-stimulus level”. The “effect on the excitability increase associated with SSPE” value in assay [1] (1 μM) was “blocked”; in assay [1] (1 μM, listed as Calphostin C), “substantially reduced”. The “effect on excitability … of presynaptic inputs” value in assay [2] (1 μM, about 15-25 min exposure) is listed as “did not affect”.

Source of the values: patent publication US20040224937A1, “Use of protein kinase C inhibitor for suppressing sustained slow postsynaptic excitation (SSPE)” (Pfizer Inc, priority 2003, published 2004).
